# Laboratory results published in patent US20030124616A1, “Homocysteinylated transthyretin” (priority 2001, published 2003).
# Legend:
# albumin = molecular target: T1, albumin (Homo sapiens, UniProt P02768); test: Binding of 35S-L-homocysteine and 35S-L-cysteine to plasma proteins (SDS-PAGE, phosphorimaging); conditions: 500 μmol/L, plasma diluted 1:1 with TES buffer
# T1 construct: from tissue; host or cells: human plasma
# Method: (§1) ^35S-L-homocysteine (500 μmol/L final concentration) was added to either human plasma fibronectin (1 mg/mL, 0.05 mol/L TES buffer, pH 7.4) or human plasma diluted 1:1 with 0.05 mol/L TES buffer, pH 7.4 and incubated under aerobic conditions for 5 hours at 37° C. with continuous shaking. Separate samples of human plasma and fibronectin were incubated with ^35S-L-cysteine (1,000 Ci/mmol) (New England Nuclear, Boston, Mass.) which was first diluted with cold L-cysteine (in 1 mol/L TES buffer, pH 7.4) to obtain a specific activity equal to that of the synthesized ^35S-L-homocysteine. The final concentrations of L-cysteine and TES in the reaction mixture was 500 μmol/L and 0.05 mol/L respectively and the incubation was carried out as described above for L-homocysteine. The bound radioactive homocysteine was detected by SDS-PAGE of the samples followed by phosphorimage analysis (Molecular Dynamics Inc., Sunnyvale, Calif.).
# (§2) Samples were combined with SDS-PAGE sample buffer (62.5 mmol/L Tris-HCl, pH 6.8, 2% SDS, 10% glycerol, 0.02% bromophenol blue) and aliquots of some samples were reduced with 2-mercaptoethanol and heated to 100° C. for 5 minutes. The samples were loaded onto 4-20% precast gradient gels (Z Axis, Hudson, Ohio) and electrophoresed using the method of Laemmli. […]
# human plasma fibronectin [1] = test: Binding of 35S-L-homocysteine and 35S-L-cysteine to fibronectin (SDS-PAGE, phosphorimaging); conditions: 500 μmol/L, 5 hours at 37° C.
# Method: as §1, §2
# human plasma fibronectin [2] = test: Stoichiometry of 35S-L-homocysteine binding to fibronectin (scintillation counting)
# Method: The human plasma fibronectin purified by affinity chromatography described above was used in these studies. Purity was assessed by SDS-PAGE as described below. Purified fibronectin (200 μg/mL) was incubated with various concentrations (up to 500 μmol/L) of ^35S-L-homocysteine for up to 10 hours at 37° C. Unbound homocysteine was removed by precipitating the fibronectin with 5% trichloroacetic acid containing 0.5% tannic acid using transferrin as a carrier protein. The precipitated fibronectin was washed 3 times with the trichloroacetic acid/tannic acid, resuspended in 0.1 N NaOH and an aliquot subjected to scintillation counting.
# [3] = molecular target: T2, human transthyretin (TTR) (Homo sapiens, UniProt P02766); test: Radiolabeling and SDS-PAGE of human plasma and purified transthyretin with 35S-L-homocysteine; type: binding; conditions: 0.5 mM, 5 h, label lost with β-mercaptoethanol
# T2 construct: Plasma TTR is a 127 amino acid protein containing a single cysteine residue at position 10; purchased Sigma
# Method: ^35S-L-Homocysteine was incubated with 50% human plasma in 0.05 M TES buffer (pH 7.4), or with purified human transthyretin (1 mg/ml in water) for 5 h at 37 C. Protein was then precipitated with 1.5 M perchloric acid and washed three times with 1.5 M perchloric acid. The final pellet was solubilized in SDS-PAGE sample buffer with and without reduction by β-mercaptoethanol. After treatment at 100 C. for 10 min, aliquots were subjected to analysis by SDS-PAGE using a 10% gel. The gel was stained with Coomassie blue, dried and subjected to phosphorimaging to detect ^35S- labeled proteins.
# In FIG. 1, ^35S-L-Homocysteine (0.5 mM) was incubated with 50% human plasma in 0.05M TES buffer (pH 7.4) and with commercially available human transthyretin from Sigma (1 mg/mL in water) for 5 hours at […]. Following the incubation, protein was precipitated with 1.5M perchloric acid and solubilized with SDS-PAGE sample buffer. Aliquots were subjected to analysis by SDS-PAGE using a 10% gel without (see lanes 1 and 2 in FIG. 1) and with reduction by β-mercaptoethanol followed by heating at 100° C. for 10 minutes (see lanes 3 and 4 in FIG. 1). The gel was strained with Coomassie blue, dried and subjected to phosphorimaging to detect ^35S-labeled proteins. […]
# T1 sequence (P02768 25-609): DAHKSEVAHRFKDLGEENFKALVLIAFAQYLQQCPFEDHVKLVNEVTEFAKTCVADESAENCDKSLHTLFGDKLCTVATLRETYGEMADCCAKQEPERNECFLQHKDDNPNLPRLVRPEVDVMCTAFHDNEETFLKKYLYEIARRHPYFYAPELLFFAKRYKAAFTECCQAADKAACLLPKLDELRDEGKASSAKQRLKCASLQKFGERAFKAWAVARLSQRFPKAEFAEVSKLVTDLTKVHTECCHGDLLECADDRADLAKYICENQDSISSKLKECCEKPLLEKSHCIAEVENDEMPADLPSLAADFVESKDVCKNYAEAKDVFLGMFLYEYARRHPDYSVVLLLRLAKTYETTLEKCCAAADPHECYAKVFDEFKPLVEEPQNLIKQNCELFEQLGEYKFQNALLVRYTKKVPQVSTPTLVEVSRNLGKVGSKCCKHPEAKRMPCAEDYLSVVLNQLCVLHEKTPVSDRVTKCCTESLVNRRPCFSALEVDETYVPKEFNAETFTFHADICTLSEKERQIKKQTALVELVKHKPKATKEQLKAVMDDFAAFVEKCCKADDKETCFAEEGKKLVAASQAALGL
binding to fibronectin in plasma or purified fibronectin (human plasma fibronectin [1]),time for binding to fibronectin to reach equilibrium (human plasma fibronectin [2]; 500 μmol/L homocysteine),"maximum homocysteine bound per mole of dimeric fibronectin (human plasma fibronectin [2]; up to 500 μmol/L homocysteine, 37° C.)",Structure (SMILES),binding to albumin in human plasma (albumin),reaction with TTR (labeling of TTR dimer and tetramer) [3]
did not bind,–,–,N[C@@H](CS)C(=O)O [L-cysteine],bound to albumin,–
bound via a disulfide linkage,≤ 5 h,5 mol,N[C@@H](CCS)C(=O)O [L-homocysteine],most of the radioactivity in the plasma was associated with albumin,readily reacts with the Cys^10 position of TTR
